# Active and inactive are the calls of the source. The calls are words filed in the database; no cut-off is given here.
# Tested on: Trypanosoma brucei
# Test: Antitrypanosomal activity against Trypanosoma brucei 427 after 48 hrs by luciferase assay
# Type: functional, organism-based
# Details: Trypanosoma brucei, 427, 48 h
row,Structure (SMILES),IC50
1,CO[C@H]1C(=O)[C@]2(CC[C@@H]1OC(=O)c1ccccc1)CO2 (relative stereo),47.3 µM
2,CO[C@@H]1C(=O)CC[C@]2(CO2)[C@]1(O)/C(C)=C/CC=C(C)C (relative stereo),41.5 µM
3,O=C(O[C@H]1CC[C@]2(CO2)[C@H](O)[C@@H]1O)c1ccccc1 (relative stereo),325 µM
4,CO[C@@H]1[C@@H](OC(=O)c2ccccc2)CC[C@]2(CO2)[C@]1(O)/C(C)=C/CC=C(C)C (relative stereo),4.2 µM

# Second part, the compound after the results:
row,IC50,Structure (SMILES)
1,0.72 µM,O=C(O[C@@H]1CC[C@]2(CO2)[C@@H](O)[C@H]1O)c1ccccc1 (relative stereo)
2,0.4 µM,CO[C@@H]1[C@H](O[Si](C)(C)C(C)(C)C)CC[C@]2(CO2)[C@@]1(O)/C(C)=C/CC=C(C)C (relative stereo)
3,0.28 µM,CO[C@@H]1[C@]2(CC[C@H](O[Si](C)(C)C(C)(C)C)[C@@]1(O)/C(C)=C/CC=C(C)C)CO2 (relative stereo)

# Tested on: HL-60
# Test: Antiproliferative activity against human HL60 cells
# Type: functional, cell-based
# Details: not given
row,Structure (SMILES),Activity
1,CO[C@@H]1C(=O)CC[C@]2(CO2)[C@]1(O)[C@@]1(C)O[C@@H]1CC=C(C)C (relative stereo),Active

# From ChEMBL document CHEMBL1157176, “Total syntheses of (+/-)-ovalicin, C4(S *)-isomer, and its C5-analogs and anti-trypanosomal activities” (Bioorg Med Chem, 2008)
